This is an account of results in ChEMBL document CHEMBL1150079, “Oxygenated Clerosterols Isolated from the Marine Alga Codium arabicum” (1995).

What all share (assay type): functional
One test deals with KB. As to the kind of experiment: Cytotoxicity against human KB cells after 3 days by MTT assay. Conditions: 72 h, read-out: ED50 (the source's name). On the technique in general: Formazan colour is commonly taken as a measure of viable cells.
The subject of a further test is A549. As to the kind of experiment: Cytotoxicity against human A549 cells after 6 days by MTT assay. Conditions: A549, 144 h, read-out: ED50 (the source's name).
Another test deals with HT-29. As to the kind of experiment: Cytotoxicity against human HT-29 cells after 6 days by MTT assay. Conditions: HT-29, 144 h, read-out: ED50 (the source's name).
The test system of a further test is P388. Nature of the test: Cytotoxicity against mouse P388 cells after 3 days by MTT assay. To be noted: P388, 72 h, read-out: ED50 (the source's name).

Structures are written as SMILES. Values after ≈ are worked out from the molar mass of the structure shown.

On to `C=C(C)[C@@H](CC)CC[C@@H](C)[C@H]1CC[C@H]2[C@@H]3C[C@@H](O)C4=CC(=O)CC[C@]4(C)[C@H]3CC[C@]12C`, for which the EC50 in the test with KB amounted to 1.3 µg/mL (≈ 3.05 µM); in the test with A549, 2.1 µg/mL (≈ 4.92 µM); in the test on HT-29 it was 0.3 µg/mL (≈ 0.703 µM); in the test on P388 it was 0.7 µg/mL (≈ 1.64 µM).

Turning to `C=C(C)[C@@H](CC)CC[C@@H](C)[C@H]1CC[C@H]2[C@@H]3C=C[C@@]4(OO)C[C@@H](O)CC[C@]4(C)[C@H]3CC[C@]12C`, the EC50 turned out to be 1 µg/mL (≈ 2.25 µM) in the test with KB, 1.1 µg/mL (≈ 2.47 µM) in the test on A549, 0.9 µg/mL (≈ 2.02 µM) in the test with HT-29 and 0.5 µg/mL (≈ 1.12 µM) in the test on P388.

`C=C(C)[C@@H](CC)CC[C@@H](C)[C@H]1CC[C@H]2[C@@H]3C(=O)C=C4C[C@@H](O)CC[C@]4(C)[C@H]3CC[C@]12C`: the EC50 in the test on KB amounted to 1 µg/mL (≈ 2.34 µM); in the test with A549, 1.2 µg/mL (≈ 2.81 µM); in the test with HT-29, 2 µg/mL (≈ 4.69 µM); with P388, 0.8 µg/mL (≈ 1.87 µM).

With `C=C(C)[C@@H](CC)CC[C@@H](C)[C@H]1CC[C@H]2[C@@H]3[C@H](OO)C=C4C[C@@H](O)CC[C@]4(C)[C@H]3CC[C@]12C`, the EC50 with KB amounted to 1 µg/mL (≈ 2.25 µM); in the test with A549 it was 0.5 µg/mL (≈ 1.12 µM); in the test on HT-29 it was 1 µg/mL (≈ 2.25 µM); in the test on P388, 0.4 µg/mL (≈ 0.899 µM).

`C=C(C)[C@@H](CC)CC[C@@H](C)[C@H]1CC[C@H]2[C@@H]3[C@H](O)C=C4C[C@@H](O)CC[C@]4(C)[C@H]3CC[C@]12C`: the EC50 in the test with KB is 1.1 µg/mL (≈ 2.57 µM); with A549 it was 0.5 µg/mL (≈ 1.17 µM); in the test with HT-29, 0.6 µg/mL (≈ 1.4 µM); in the test on P388, 0.2 µg/mL (≈ 0.467 µM).

Regarding `C=C(C)[C@@H](CC)CC[C@@H](C)[C@H]1CC[C@H]2[C@@H]3CC=C4C[C@@H](O)CC[C@]4(C)[C@H]3CC[C@]12C` [CLEROSTEROL], the EC50 was more than 50 µg/mL in the test with KB, 0.3 µg/mL (≈ 0.727 µM) with A549, 43.1 µg/mL (≈ 104 µM) in the test on HT-29 and 1.7 µg/mL (≈ 4.12 µM) with P388.
